# Reference: patent US20180201651A1, “PHARMACEUTICAL COMPOSITION THAT IS ANTICANCER AND SUPPRESSES CANCER METASTASIS, CONTAINING, AS ACTIVE INGREDIENT, FUSION PEPTIDE SIMULTANEOUSLY TARGETING CANCER CELL AND TUMOR ASSOCIATED MACROPHAGE” (Kyungpook National University Industry-Academic Cooperation …, priority 2015, published 2018)
# Where no end group is shown, it is not given here.
# How the values were obtained:
# [1] = tested on: IL-10-treated 4T1 tumor cells; experiment: Cytotoxicity evaluation (CCK8 kit); type: cell-based, mouse; details: FIG. 10B
# Method: (§2) Absorbance was measured at 450 nm, and cytotoxicity was calculated by the following equation:
# (§3) Cell viability=(A sample−A blank/A control−A blank)×100
# (§4) A control=Absorbance value of the well which contains only cells and CCK8 solution
# [2] = tested on: M2 type macrophages (tumor-associated macrophages, TAM)
# Method: as §2, §3, §4
# [3] = tested on: 4T1 tumor; experiment: In vivo anti-cancer and cancer metastasis inhibitory activity, orthotopic 4T1 tumor model; design: species or system mouse
# Method: Orthotropic 4T1 tumor model were produced by the implantation of 1×10^6 4T1 cells into the left mammary fat pad of the wild-type Balb/c mouse. Tumor was left to grow until its size reached approximately 100 mm^3, followed by random segregation of mice into separate groups for administration. Mice were separated into a total of six groups with five […] in each group. Peptides ([…] ID NO: 1) and […] fusion polypeptide (SEQ ID NO: 3), respectively) were administered via the tail vein of the mouse at an equimolar concentration (1 mM peptide 200/20 g body weight of mice, administered 3 times a week for 4 weeks). Mice of the other three groups were intraperitoneally administered with 8 mg/kg dosage concentration of paclitaxel once a week, in addition to the administration of the peptides. […] The weight and tumor size of the mice were observed after administration. The tumor size was measured with a digital caliper, and the volume of the tumor was calculated by the following equation: V=(L×W×H)/2 (L: the longest-length, W: Short length, H: height) The mice were sacrificed after the last dose, and metastasis of the tumor into the lungs and liver was evaluated. The excised tumors and organs were fixed in 4% PFA and used for additional immunohistological analysis. Frozen tumor tissues were blocked with a blocking solution of 1 g of BSA, 0.2 g of gelatin and 0.05 g of saponin dissolved in PBS, followed by incubation using primary antibodies for 11⁄2 hours and staining using HRP-labeled secondary antibodies for 45 minutes at room temperature. The stained tissues were exposed using DAB (DAKO) and a contrast dyeing was performed using hematoxylin for 5 minutes at room temperature. Each step moved onto the next one after washing with PBS containing 10% blocking solution. Finally, the tissues were observed by Bright Field Microscopy.
# [4] = tested on: wild-type 4T1 cells; experiment: Cytotoxicity evaluation (CCK8 kit); type: cell-based, mouse; details: FIG. 10A
# Method: as §2, §3, §4
# [5] = tested on: M1-type macrophages
# Method: as §2, §3, §4
# [6] = target: T1, IL-4 receptor (Mus musculus, UniProt P16382); experiment: In vivo optical imaging and histological analysis of peptide binding in 4T1 tumor cells-transplanted mice; details: for fluorescence in tumor tissues: Flamma 675-labeled peptide, tail vein
# T1 construct: from tissue; host or cells: 4T1 tumour tissue in wild-type Balb/c mice (IL4R alpha knockout mice as negative control)
# T1 sequence (P16382 26-810): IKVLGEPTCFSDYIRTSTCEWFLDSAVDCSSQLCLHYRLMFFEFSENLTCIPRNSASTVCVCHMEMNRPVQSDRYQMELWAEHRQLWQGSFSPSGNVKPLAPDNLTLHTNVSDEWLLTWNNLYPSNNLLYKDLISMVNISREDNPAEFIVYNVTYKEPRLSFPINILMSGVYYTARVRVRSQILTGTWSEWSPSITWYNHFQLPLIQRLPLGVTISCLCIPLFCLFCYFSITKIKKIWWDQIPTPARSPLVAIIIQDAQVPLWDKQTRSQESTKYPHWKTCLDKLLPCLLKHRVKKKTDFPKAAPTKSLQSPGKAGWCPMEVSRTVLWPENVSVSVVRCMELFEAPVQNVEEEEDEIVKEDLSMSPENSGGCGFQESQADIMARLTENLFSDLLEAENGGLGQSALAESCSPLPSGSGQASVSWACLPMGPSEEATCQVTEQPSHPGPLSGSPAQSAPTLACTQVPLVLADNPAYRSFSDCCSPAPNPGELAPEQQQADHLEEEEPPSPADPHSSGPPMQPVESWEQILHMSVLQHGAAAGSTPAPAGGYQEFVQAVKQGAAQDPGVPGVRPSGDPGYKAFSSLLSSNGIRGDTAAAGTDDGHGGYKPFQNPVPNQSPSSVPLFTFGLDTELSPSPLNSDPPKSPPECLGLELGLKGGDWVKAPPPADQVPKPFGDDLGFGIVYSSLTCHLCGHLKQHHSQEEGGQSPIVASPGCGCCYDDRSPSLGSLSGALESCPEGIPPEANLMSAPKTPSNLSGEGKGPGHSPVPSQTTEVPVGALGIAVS
# From the text: Female wild-type Balb/c mice were purchased from Orient Bio (Republic of Korea) to prepare IL-4 receptor-deficient mice. Mouse tumor models were produced by subcutaneously injecting 1×10^6 4T1 tumor cells into the flank top skin of the wild-type and IL-4 receptor-deficient mice, respectively. Orthotopic animal models were produced by injecting 1×10^6 4T1 cells into the mammary fat tissue of the mice.
# (§1) The Flamma 675-labeled IL4RPep-1 peptide (SEQ ID NO: 1) and control peptide (NSSSVDK) of SEQ ID NO: 7 were administered via the tail vein of 4T1 tumor cells-transplanted wild-type mice and the IL-4 receptor-deficient mice, respectively. In vivo imaging was conducted using the Optix imaging system (ART Inc., Canada) after one hour and two hours circulation. The mice were sacrificed after imaging, and tumors and organs were then excised for ex vivo imaging.
# For immunohistochemical analysis, excised tumors were fixed with 4% PFA and dehydrated with 30% sucrose. 8 μm thick slices of the tumor were prepared and their histological structures were evaluated by DAPI staining.
# Additionally, in order to analyze the tendency of […] of the peptide and the receptor in the tumor tissues, the tumor samples were immunostained with anti-IL4Rα antibodies and F4/80 antibodies, followed by detection with Alexa-488/594-conjugated secondary IgG antibodies (invitrogen).
# [7] = tested on: IL-4 receptor; experiment: Immunofluorescent staining of IL4RPep-1 bound to IL-4 receptors and cells; type: cell-based
# Method: In order to test whether the peptides binds to cells, tumor cells were blocked with 1% BSA solution initially, 10 μM FITC-labeled IL4RPep1 peptides of SEQ ID NO: 1 were then incubated at 4° C. for 1 hour. The cells were washed and fixed with 4% PFA, while their nuclei were stained with DAPI.
# To evaluate the expression level of IL-4 receptor in the cells or tumor tissues, immunostaining was performed on frozen tissue sections or fixed mouse tumor cell lines by using anti-IL-4R, anti-IL13Rα1 and anti-IL2R γC antibodies.
# After being washed with PBS, the cells were incubated at room temperature for 1 hour with secondary antibodies. Finally, following nuclear staining with DAPI, the cells were examined by a fluorescence microscope (Zeiss, Germany).
# [8] = tested on: IL-10-treated 4T1 cells; experiment: IL4RPep-1 binding affinity assay on IL-10-treated versus wild-type 4T1 cells; design: species or system mouse; details: FIG. 9A
# Method: Blocking the tumor cells with 1% BSA at room temperature for 30 minutes, the biotin-labeled IL4RPep-1 peptides of various concentrations (1 to 80 μM) were incubated for 1 hour. After washing with PBS, the cells were incubated with Neutravidin HRP (1: 10000) at room temperature for 30 minutes. HRP activity was measured by using the TMB substrate, and the reaction was stopped using 2M sulfuric acid. Absorbance was measured at 450 nm using TECAN microplate reader. Kd values were calculated using Graph Pad Prism 6 software (GraphPad software Inc., La Jolla, La.).
# 4T1 cells were cultured using DMEM medium containing 50% of the mouse spleen-derived macrophages which were differentiated into M2 type macrophages. As for the culture medium containing TAM, the debris was removed by centrifugation and strainer prior to use. Cytokine-induced epithelial mesenchymal transition was implemented by culturing the cells with mouse IL-10 and mouse IL-4 for 24 hours or with mouse TFGβ-containing medium for 48 hours. Subsequently, the cells were stained with N-cadherin (a mesenchymal marker), and the expression level of IL-4 receptor was evaluated.
# [9] = target: T2, mouse IL-4 receptor (mouse, UniProt P16382 26-810); experiment: in vivo and ex vivo fluorescence imaging, Flamma 675-labelled peptide, 4T1 tumor-bearing Balb/c mice
# T2 construct: whole, on cells; The target is endogenous receptor on mouse cells, not a purified protein; also called IL4R alpha
# T2 sequence (looked up): T1 sequence (P16382 26-810)
# Method: as §1
# It was evaluated whether the IL4RPep-1 peptide having the amino acid sequence of SEQ ID NO: 1 specifically binds to IL-4 receptor in 4T1 tumor cells-transplanted Balb/c wild-type mice and Balb/c IL-4 receptor-deficient (knockout) mice, respectively. That is, Flamma 675-labeled IL4RPep-1 peptides and control peptides (NSSSVDK, SEQ ID NO: 7) were administered into the tail vein of the mouse, respectively, followed by real time observation for fluorescence intensity.
# [10] = frozen tumor sections, antibody staining, versus control group, FIG. 13
# [11] = 4T1-transplanted wild-type Balb/c mice, in vivo and ex vivo
molecule,measurement,setting,value
CRKRLDRNCGGGKLAKLAKKLAKLAK (Fusion peptide) [IL4RPep-1-KLA],cytotoxicity,[1],excellent cytotoxicity
same,cytotoxicity,[2],excellent cytotoxicity
same,tumor growth,"[3]; Balb/c mice, tail vein, 3 times a week for 4 weeks, from administration until end of experiment, FIG. 11",significantly suppressed
same,CD4(+) T cells in tumor tissue,[3]; [10],decreased
same,CD8 (+) T cells in tumor tissue,[3]; [10],increased
same,CD80(+) macrophages in tumor tissue,[3]; [10],increased
same,F4/80(+) tumor-associated macrophages in tumor tissue,[3]; [10],reduced
same,N-cadherins in tumor tissue,[3]; [10],reduced
same,metastasis of cancer in liver and lungs,"[3]; organs excised after final administration, FIGS. 12A and 12B",not observed at all
same,cytotoxicity,[4],insignificant
same,cytotoxicity,[5],insignificant
CRKRLDRNC [IL4RPep-1],fluorescence in tumor tissues,[6]; 4T1-transplanted IL-4 receptor-deficient (knockout) Balb/c mice,no fluorescence was detected
same,fluorescence in tumor tissues,[6]; [11],strongly detected
same,peptide binding in excised tumor tissue fragments,"[6]; IL-4 receptor-deficient mice, immunostaining, FIG. 4B",no binding
same,peptide staining in excised tumor tissue fragments,"[6]; wild-type mice, immunostaining, FIG. 4A",in the same pattern as that of IL-4 receptors
same,binding to cells versus expression pattern of IL-4 receptors,"[7]; 4T1, A549, MDA-MB 231, M1 and M2 type Raw 264.7 cells, FITC-labeled peptide 10 μM",specifically bind to IL-4 receptors
same,binding pattern to cells versus expression pattern of IL-4 receptors,"[7]; mouse spleen-derived M1 type and M2 type macrophages, FIG. 2A",the same as the expression pattern of IL-4 receptors
same,binding affinity in IL-10-treated 4T1 cells compared with wild-type 4T1 cells,[8],significantly excellent
"NSSSVDK [control peptide, reference compound]",fluorescence in tumor tissues,[6]; [11],no fluorescence was detected
"NSSSVDK (also: Flamma 675 label, position not given here, Control peptide) [control peptide (NSSSVDK)]",binding result,[9],no binding
